The values that follow come from US9238639B2, “Aromatic ring compound” (TAKEDA PHARMACEUTICAL COMPANY LIMITED, priority 2012, dated 2016).

This assay has as its target T1, human GOAT (Homo sapiens, UniProt Q96T53).
T1 construct: made in house; host or cells: Sf9 insect cells (BacToBac baculovirus, pFastBac1 vector); microsome fraction
T1 sequence (Q96T53 1-435): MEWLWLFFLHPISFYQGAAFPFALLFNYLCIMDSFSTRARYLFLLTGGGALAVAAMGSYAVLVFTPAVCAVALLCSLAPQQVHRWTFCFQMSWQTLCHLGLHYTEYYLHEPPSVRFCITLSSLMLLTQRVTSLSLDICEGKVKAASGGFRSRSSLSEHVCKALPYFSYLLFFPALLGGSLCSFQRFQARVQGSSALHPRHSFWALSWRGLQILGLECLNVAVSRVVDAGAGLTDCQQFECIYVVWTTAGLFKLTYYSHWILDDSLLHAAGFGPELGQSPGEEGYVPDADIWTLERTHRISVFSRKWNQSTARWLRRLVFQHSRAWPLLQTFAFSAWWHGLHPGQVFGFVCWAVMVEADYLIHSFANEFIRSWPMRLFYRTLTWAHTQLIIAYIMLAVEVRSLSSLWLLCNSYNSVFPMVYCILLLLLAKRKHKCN
The assay can be described thus: GOAT enzyme activity measurement by HTRF method (human GOAT-expressing microsome fraction). The format is biochemical. The following applies: 10 μM compound; human GOAT-expressing Sf9 microsome fraction; octanoyl-CoA and Ghrelin-biotin substrates; 0% control without compound, 100% control without enzyme. (In general: TR-FRET usually uses a lanthanide donor and a delayed reading to cut background.)

Consider `CC(=O)NCCc1coc2cc(OCc3ccc(Cl)cc3Cl)ccc12` [Example 196, N-(2-(6-(2,4-Dichlorobenzyloxy)-1-benzofuran-3-yl)ethyl)acetamide], for which the inhibition at 10 µM was found to be 73%. As to `CC(=O)NCC[C@@H]1COc2cc(OCc3ccc(Cl)cc3Cl)ccc21` [Example 197, N-(2-((3S)-6-((2,4-Dichlorobenzyl)oxy)-2,3-dihydro-1-benzofuran-3-yl)ethyl)acetamide], the inhibition at 10 µM is 69%. On to `CCC(=O)NCC[C@@H]1COc2cc(OCc3ccc(Cl)cc3Cl)ccc21` [Example 198, N-(2-((3S)-6-((2,4-Dichlorobenzyl)oxy)-2,3-dihydro-1-benzofuran-3-yl)ethyl)propanamide], for which the inhibition at 10 µM stood at 59%. Regarding `O=C(O)C[C@@H]1COc2cc(OCc3ccc(Cl)cc3Cl)ccc21` [Example 262, ((3S)-6-((2,4-Dichlorobenzyl)oxy)-2,3-dihydro-1-benzofuran-3-yl)acetic acid], the inhibition at 10 µM was determined as 93%. `O=C(O)C[C@H]1COc2cc(OCc3ccc(Cl)cc3Cl)ccc21` [Example 263, ((3R)-6-((2,4-Dichlorobenzyl)oxy)-2,3-dihydro-1-benzofuran-3-yl)acetic acid]: the inhibition at 10 µM turned out to be 86%. Turning to `O=C(O)C1(CO)COc2cc(OCc3ccc(Cl)cc3Cl)ccc21` (centres unmarked) [Example 279, 6-((2,4-Dichlorobenzyl)oxy)-3-(hydroxymethyl)-2,3-dihydro-1-benzofuran-3-carboxylic acid], the inhibition at 10 µM was 81%.

Take `COCC1(C(=O)O)COc2cc(OCc3ccc(Cl)cc3Cl)ccc21` (centres unmarked) [Example 281, 6-((2,4-Dichlorobenzyl)oxy)-3-(methoxymethyl)-2,3-dihydro-1-benzofuran-3-carboxylic acid]: the inhibition at 10 µM came out at 85%. Take `Cc1ccc(COc2cc(C)c3c(c2C)OCC3CC(=O)O)c(C)n1` (centres unmarked) [Example 289, (6-((2,6-Dimethylpyridin-3-yl)methoxy)-4,7-dimethyl-2,3-dihydro-1-benzofuran-3-yl)acetic acid]: the inhibition at 10 µM was found to be 94.8%. For the compound `Cc1cc(OCc2ccc(Cl)cc2Cl)c(C)c2c1C(CC(=O)O)CO2` (centres unmarked) [Example 291, (6-((2,4-Dichlorobenzyl)oxy)-4,7-dimethyl-2,3-dihydro-1-benzofuran-3-yl)acetic acid], the inhibition at 10 µM stood at 96.2%. As to `COC(=O)Cc1csc2cc(OCc3cc(C(F)(F)F)nn3C)cc(F)c12` [Example 302, Methyl (4-fluoro-6-((1-methyl-3-(trifluoromethyl)-1H-pyrazol-5-yl)methoxy)-1-benzothiophen-3-yl)acetate], the inhibition at 10 µM stood at 99.9%. Turning to `Cn1nc(C(F)(F)F)cc1COc1cc(F)c2c(CC(=O)O)csc2c1` [Example 303, (4-Fluoro-6-((1-methyl-3-(trifluoromethyl)-1H-pyrazol-5-yl)methoxy)-1-benzothiophen-3-yl)acetic acid], the inhibition at 10 µM was 104%. As to `COC(=O)Cc1csc2cc(OCc3ccc(C(F)(F)F)nc3C)cc(F)c12` [Example 304, Methyl (4-fluoro-6-((2-methyl-6-(trifluoromethyl)pyridin-3-yl)methoxy)-1-benzothiophen-3-yl)acetate], the inhibition at 10 µM amounted to 94.9%. Consider `Cc1nc(C(F)(F)F)ccc1COc1cc(F)c2c(CC(=O)O)csc2c1` [Example 305, (4-Fluoro-6-((2-methyl-6-(trifluoromethyl)pyridin-3-yl)methoxy)-1-benzothiophen-3-yl)acetic acid], for which the inhibition at 10 µM is 102%. For the compound `COC(=O)Cc1c(C)sc2cc(OCc3cc(C(F)(F)F)nn3C)cc(Cl)c12` [Example 306, Methyl (4-chloro-2-methyl-6-((1-methyl-3-(trifluoromethyl)-1H-pyrazol-5-yl)methoxy)-1-benzothiophen-3-yl)acetate], the inhibition at 10 µM is 99.5%. As to `Cc1sc2cc(OCc3cc(C(F)(F)F)nn3C)cc(Cl)c2c1CC(=O)O` [Example 307, (4-Chloro-2-methyl-6-((1-methyl-3-(trifluoromethyl)-1H-pyrazol-5-yl)methoxy)-1-benzothiophen-3-yl)acetic acid], the inhibition at 10 µM was 106%. Consider `COC(=O)Cc1c(C)sc2cc(OCc3ccc(C(F)(F)F)nc3C)cc(Cl)c12` [Example 308, Methyl (4-chloro-2-methyl-6-((2-methyl-6-(trifluoromethyl)pyridin-3-yl)methoxy)-1-benzothiophen-3-yl)acetate], for which the inhibition at 10 µM was 51.5%.

On to `Cc1nc(C(F)(F)F)ccc1COc1cc(Cl)c2c(CC(=O)O)c(C)sc2c1` [Example 309, (4-Chloro-2-methyl-6-((2-methyl-6-(trifluoromethyl)pyridin-3-yl)methoxy)-1-benzothiophen-3-yl)acetic acid], for which the inhibition at 10 µM was 103%.

As a reminder, the inhibition is the relative decrease from the control value, in per cent.
